US9738652B2, “Spiro urea compounds as RSV antiviral compounds” (priority 2014, dated 2017)

Key:
[1] = Cytotoxicity in HeLa cells (ATPlite, CC50) used for selectivity index; conditions: human
Protocol: The wells contain 0.05% DMSO per volume. Cells were incubated at 37° C. in a 5% CO2 atmosphere. […] In parallel, compounds were incubated for three days in a set of white 384-well microtiter plates (Corning) and the cytotoxicity of compounds in HeLa cells was determined by measuring the ATP content of the cells using the ATPlite kit (Perkin Elmer, Zaventem, Belgium) according to the manufacturer's instructions. The CC50 was defined as the 50% concentration for cytotoxicity.

rgRSV224 virus = test: Antiviral activity: rgRSV224 (GFP) replication in HeLa cells; conditions: human respiratory syncytial virus, 72 h, read-out: RSV HELA pEC50 (converted)
Protocol: Black 384-well clear-bottom microtiter plates (Corning, Amsterdam, The Netherlands) were filled via acoustic drop ejection using the echo liquid handler (Labcyte, Sunnyvale, Calif.). 200 nL of compound stock solutions (100% DMSO) were transferred to the assay plates. 9 serial 4-fold dilutions of compound were made, creating per quadrant the same compound concentration. The assay was initiated by adding 10 μL of culture medium to each well (RPMI medium without phenol red, 10% FBS-heat inactivated, 0.04% gentamycin (50 mg/mL). All addition steps are done by using a multidrop dispenser (Thermo Scientific, Erembodegem, Belgium). Next, rgRSV224 virus (MOI=1) diluted in culture medium was added to the plates. rgRSV224 virus is an engineered virus that includes an additional GFP gene (Hallak L K, Spillmann D, Collins P L, Peeples M E. Glycosaminoglycan sulfation requirements for respiratory syncytial virus infection; Journal of virology (2000), 74(22), 10508-13) and was in-licensed from the NIH (Bethesda, Md., USA). Finally, 20 μL of a HeLa cell suspension (3,000 cells/well) were plated. Medium, virus- and mock-infected controls were included in each test. The wells contain 0.05% DMSO per volume. Cells were incubated at 37° C. in a 5% CO2 atmosphere. Three days post-virus exposure, viral replication was quantified by measuring GFP expression in the cells by an in house developed MSM laser microscope (Tibotec, Beerse, Belgium). The EC50 was defined as the 50% inhibitory concentration for GFP expression. In parallel, compounds were incubated for three days in a set of white 384-well microtiter plates (Corning) and the cytotoxicity of compounds in HeLa cells was determined by measuring the ATP content of the cells using the ATPlite kit (Perkin Elmer, Zaventem, Belgium) according to the manufacturer's instructions. The CC50 was defined as the 50% concentration for cytotoxicity.

SMILES: CNC(=O)N1CCC2(CC1)C(=O)N(Cc1nc3cc(Cl)ccc3n1CCCC#N)c1cnccc12 [Co. No. 26, 1′-[[5-chloro-1-(3-cyanopropyl)benzimidazol-2-yl]methyl]-N-methyl-2′-oxo-spiro[piperidine-4,3′-pyrrolo[2,3-c]pyridine]-1-carboxamide]
- selectivity ratio at 3 days [1]: > 1.82e+06
- melting point: 99.81 °C
- EC50 (rgRSV224 virus): 0.055 nM

SMILES: N#CCCCn1c(CN2C(=O)C3(CN(C(=O)NC4CCN(CC(F)(F)F)CC4)C3)c3ccccc32)cc2cc(Cl)ccc21 [Co. No. 4, 1′-[[5-chloro-1-(3-cyanopropyl)indol-2-yl]methyl]-2′-oxo-N-[1-(2,2,2-trifluoroethyl)-4-piperidyl]spiro[azetidine-3,3′-indoline]-1-carboxamide]
- selectivity ratio at 3 days [1]: 100000
- EC50 (rgRSV224 virus): 1 nM
